Patent publication US20090271892A1, “LYSOPHOSPHATIDIC ACID ACYLTRANSFERASE GENES AND USES THEREOF” (priority 2006, published 2009)

Biological target: T1, Litchi sinensis LPAAT (LsLPAAT, pEW108), mutant of SEQ ID No 2 in the last C-terminal amino acids, SEQ ID No 1 (Litchi chinensis, UniProt A0A346D9Z1)
T1 construct: araBAD promoter, E. coli JC201 microsomes
Assay: LPAAT assay, kinetic parameters with C18:1-CoA, E. coli JC201 microsomes
Type: biochemical
Details: C18:1-CoA 0-50 μM, 10 min, 30° C., pH7.5, N = 4
Excerpt: FIG. 1: Kinetics of phosphatidic acid synthesis using ^14C-C18:1-CoA on ^3H-LPA as substrates and Brassica napus (SEQ ID No 5) and Litchi microsomal (SEQ ID NO 1) LPAATs as enzymes. Duplicate measurements for one experiment are shown.
The inventors have identified one putative Lysophosphatidic Acid-Acyl Transferase from Lychee (SEQ ID No 2). They also have obtained a mutated protein derived from this protein, which is depicted as SEQ ID No 1.
Plasmids pEW108 and 117 comprising genes coding for SEQ ID No 1 and SEQ ID No 2 respectively under the control of the araBAD promoter (Guzman, L-M. et al. (1995) J Bacteriology 177: 4121-4130) were prepared and used to transform and complement an E. coli strain. The araBAD promoter is induced by arabinose, repressed by glucose and is used in the art to express polynucleotides in a controlled manner.
The following experiments were performed with the Escherichia coli JC201 mutant strain, which is temperature conditional in endogenous LPAAT activity and able to grow at 30° C. but not at 44° C. (genotype plsC, described in Coleman, 1990 J. Biol. Chem., 265 (28), 17215-21.). These bacteria were kept at −80° C. as 1 ml glycerol stocks. […] Optical density was measured at 600 nm and each flask was then cultivated for 6 hours at 30 and 44° C. respectively in order to check by optical density measurement that bacterial growth occurs at 30° C. but not at 44° C. […]

T1 sequence (A0A346D9Z1 entry or part of it, change not shown): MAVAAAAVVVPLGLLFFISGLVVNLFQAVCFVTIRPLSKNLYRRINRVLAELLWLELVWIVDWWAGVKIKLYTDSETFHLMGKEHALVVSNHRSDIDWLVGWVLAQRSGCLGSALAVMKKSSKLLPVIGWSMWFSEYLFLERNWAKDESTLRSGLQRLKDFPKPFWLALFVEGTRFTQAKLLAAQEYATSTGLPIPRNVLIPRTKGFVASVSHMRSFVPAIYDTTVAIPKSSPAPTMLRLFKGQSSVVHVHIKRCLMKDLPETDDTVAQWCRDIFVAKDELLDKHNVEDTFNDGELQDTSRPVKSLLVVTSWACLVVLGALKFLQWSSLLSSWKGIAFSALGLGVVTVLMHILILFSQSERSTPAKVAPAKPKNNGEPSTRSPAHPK

## CCCCCCCC/C=C\CCCCCCCC(=O)SCCNC(=O)CCNC(=O)[C@H](O)C(C)(C)COP(=O)(O)OP(=O)(O)OC[C@H]1O[C@@H](n2cnc3c(N)ncnc32)[C@H](O)[C@@H]1OP(=O)(O)O [C18:1-CoA, Oleoyl-CoA]
  Km: 7.3 ± 4.1 µM
Apparent Vmax, per mg total protein
  Vmax: 1557 ± 616 pmol · mg prot^−1 · min^−1
